Data taken from ChEMBL document CHEMBL1201862, “PubChem BioAssay data set” (2004).
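How tested: cells in 96-well plates exposed to compound for 48 hours at five concentrations. GI50 = concentration required for 50% inhibition of growth.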 The source made the active and inactive calls. Cut-off read from the data, not from the text of the source: active = GI50 up to about 1.1 µM and inactive = higher.

Tests used:
Experiment in all cases: NCI tumour cell line growth inhibition, 48 h
CCRF-CEM = test system: CCRF-CEM
Malme-3M = test system: Malme-3M
SNB-75 = test system: SNB-75
HOP-62 = test system: HOP-62
EKVX = test system: EKVX
SF-268 = test system: SF-268
SK-MEL-5 = test system: SK-MEL-5
PC-3 = test system: PC-3
SN12C = test system: SN12C
OVCAR-4 = test system: OVCAR-4
786-0 = test system: 786-0
SR = test system: SR
M14 = test system: M14
NCI/ADR-RES = test system: NCI/ADR-RES
OVCAR-5 = test system: OVCAR-5
HL-60 = test system: HL-60
HT-29 = test system: HT-29
NCI-H522 = test system: NCI-H522
CAKI-1 = test system: CAKI-1
OVCAR-3 = test system: OVCAR-3
MOLT-4 = test system: MOLT-4
MDA-MB-435 = test system: MDA-MB-435
BT-549 = test system: BT-549
ACHN = test system: ACHN
HOP-92 = test system: HOP-92
RPMI-8226 = test system: RPMI-8226
SNB-19 = test system: SNB-19
SF-539 = test system: SF-539
SF-295 = test system: SF-295
DU-145 = test system: DU-145
MCF7 = test system: MCF7
UO-31 = test system: UO-31
MDA-N = test system: MDA-N
Hs-578T = test system: Hs-578T
NCI-H460 = test system: NCI-H460
HCT-116 = test system: HCT-116
T47D = test system: T47D
K562 = test system: K562
LOX IMVI = test system: LOX IMVI
SK-MEL-2 = test system: SK-MEL-2
U-251 = test system: U-251
HCC 2998 = test system: HCC 2998
NCI-H226 = test system: NCI-H226
SK-MEL-28 = test system: SK-MEL-28
TK-10 = test system: TK-10
COLO 205 = test system: COLO 205
UACC-257 = test system: UACC-257
SK-OV-3 = test system: SK-OV-3
A549 = test system: A549
UACC-62 = test system: UACC-62
OVCAR-8 = test system: OVCAR-8
MDA-MB-231 = test system: MDA-MB-231
IGROV-1 = test system: IGROV-1
NCI-H23 = test system: NCI-H23
RXF 393 = test system: RXF 393
KM12 = test system: KM12
SW-620 = test system: SW-620
A498 = test system: A498
HCT-15 = test system: HCT-15

SMILES: CC(CC[C@@]1(O)OC2C[C@H]3[C@@H]4CC[C@H]5CC(OC6OC(CO)C(OC7OC(CO)C(O)C(OC8OCC(O)C(O)C8O)C7OC7OC(CO)C(O)C(O)C7O)C(O)C6O)[C@H](O)CC5(C)[C@H]4CCC3(C)C2[C@@H]1C)COC1OC(CO)C(O)C(O)C1O (stereo partly drawn)
- GI50 (CCRF-CEM): 3.26 µM (inactive)
- GI50 (Malme-3M): 15.2 µM (inactive)
- GI50 (SNB-75): 0.64 µM (active)
- GI50 (HOP-62): 4.15 µM (inactive)
- GI50 (EKVX): 2.38 µM (inactive)
- GI50 (SF-268): 2.48 µM (inactive)
- GI50 (SK-MEL-5): 6.9 µM (inactive)
- GI50 (PC-3): 10.3 µM (inactive)
- GI50 (SN12C): 2.35 µM (inactive)
- GI50 (OVCAR-4): 9.79 µM (inactive)
- GI50 (786-0): 3.43 µM (inactive)
- GI50 (SR): 7.85 µM (inactive)
- GI50 (M14): 25 µM (inactive)
- GI50 (NCI/ADR-RES): 6.65 µM (inactive)
- GI50 (OVCAR-5): 11.7 µM (inactive)
- GI50 (HL-60): 6.9 µM (inactive)
- GI50 (HT-29): 11 µM (inactive)
- GI50 (NCI-H522): 2.87 µM (inactive)
- GI50 (CAKI-1): 4.76 µM (inactive)
- GI50 (OVCAR-3): 3.46 µM (inactive)
- GI50 (MOLT-4): 2.45 µM (inactive)
- GI50 (MDA-MB-435): 14.8 µM (inactive)
- GI50 (BT-549): 1.76 µM (inactive)
- GI50 (ACHN): 2.09 µM (inactive)
- GI50 (HOP-92): 17.7 µM (inactive)
- GI50 (RPMI-8226): 19.4 µM (inactive)
- GI50 (SNB-19): 28.3 µM (inactive)
- GI50 (SF-539): 3.73 µM (inactive)
- GI50 (SF-295): 4.24 µM (inactive)
- GI50 (DU-145): 3.09 µM (inactive)
- GI50 (MCF7): 8.71 µM (inactive)
- GI50 (UO-31): 6.84 µM (inactive)
- GI50 (MDA-N): 15.4 µM (inactive)
- GI50 (Hs-578T): 4.73 µM (inactive)
- GI50 (NCI-H460): 2.09 µM (inactive)
- GI50 (HCT-116): 3.67 µM (inactive)
- GI50 (T47D): 12.2 µM (inactive)
- GI50 (K562): 16.6 µM (inactive)
- GI50 (LOX IMVI): 8.97 µM (inactive)
- GI50 (SK-MEL-2): 13.4 µM (inactive)
- GI50 (U-251): 15.5 µM (inactive)
- GI50 (HCC 2998): 13.8 µM (inactive)
- GI50 (NCI-H226): 13.5 µM (inactive)
- GI50 (SK-MEL-28): 29.2 µM (inactive)
- GI50 (TK-10): 2.39 µM (inactive)
- GI50 (COLO 205): 13 µM (inactive)
- GI50 (UACC-257): 15.8 µM (inactive)
- GI50 (SK-OV-3): 13.2 µM (inactive)
- GI50 (A549): 3.47 µM (inactive)
- GI50 (UACC-62): 16.4 µM (inactive)
- GI50 (OVCAR-8): 9.86 µM (inactive)
- GI50 (MDA-MB-231): 25.9 µM (inactive)
- GI50 (IGROV-1): 11.3 µM (inactive)
- GI50 (NCI-H23): 2.8 µM (inactive)
- GI50 (RXF 393): 4.28 µM (inactive)
- GI50 (KM12): 15.3 µM (inactive)
- GI50 (SW-620): 11.6 µM (inactive)
- GI50 (A498): 18.9 µM (inactive)
- GI50 (HCT-15): 20.9 µM

SMILES: CC1OC(OC2C(O)COC(OC3C(C)OC(OC4C(OC(=O)[C@]56CCC(C)(C)C[C@@H]5C5=CCC7[C@@]8(C)C[C@H](O)[C@H](OC9OC(CO)C(O)C(OC%10OC(CO)C(O)C(O)C%10O)C9O)[C@@](C)(CO)[C@@H]8CC[C@@]7(C)[C@]5(C)CC6)OCC(O)C4O)C(O)C3OC3OCC(O)C(O)C3O)C2O)C(O)C(O)C1O (stereo partly drawn)
- GI50 (CCRF-CEM): 10.4 µM (inactive)
- GI50 (Malme-3M): 10.1 µM (inactive)
- GI50 (SNB-75): 16 µM (inactive)
- GI50 (HOP-62): 6.76 µM (inactive)
- GI50 (EKVX): 7.05 µM (inactive)
- GI50 (SF-268): 12.2 µM (inactive)
- GI50 (SK-MEL-5): 4.45 µM (inactive)
- GI50 (PC-3): 4.36 µM (inactive)
- GI50 (SN12C): 2 µM (inactive)
- GI50 (OVCAR-4): 11.7 µM (inactive)
- GI50 (786-0): 5.53 µM (inactive)
- GI50 (SR): 7.08 µM (inactive)
- GI50 (M14): 1.87 µM (inactive)
- GI50 (NCI/ADR-RES): 10.9 µM (inactive)
- GI50 (OVCAR-5): 7.43 µM (inactive)
- GI50 (HL-60): 3.72 µM (inactive)
- GI50 (HT-29): 18.7 µM (inactive)
- GI50 (NCI-H522): 9.93 µM (inactive)
- GI50 (CAKI-1): 4.39 µM (inactive)
- GI50 (OVCAR-3): 11.4 µM (inactive)
- GI50 (MOLT-4): 16.6 µM (inactive)
- GI50 (MDA-MB-435): 2.66 µM (inactive)
- GI50 (BT-549): 9.57 µM (inactive)
- GI50 (ACHN): 5.41 µM (inactive)
- GI50 (HOP-92): 12.3 µM (inactive)
- GI50 (RPMI-8226): 13.9 µM (inactive)
- GI50 (SNB-19): 7.67 µM (inactive)
- GI50 (SF-539): 14.6 µM (inactive)
- GI50 (SF-295): 3.14 µM (inactive)
- GI50 (DU-145): 7.1 µM (inactive)
- GI50 (MCF7): 17.3 µM (inactive)
- GI50 (UO-31): 3.15 µM (inactive)
- GI50 (MDA-N): 2.87 µM (inactive)
- GI50 (Hs-578T): 15.2 µM (inactive)
- GI50 (NCI-H460): 17.4 µM (inactive)
- GI50 (HCT-116): 11.3 µM (inactive)
- GI50 (T47D): 3.96 µM (inactive)
- GI50 (K562): 16.7 µM (inactive)
- GI50 (LOX IMVI): 13.2 µM (inactive)
- GI50 (SK-MEL-2): 3.47 µM (inactive)
- GI50 (U-251): 5.62 µM (inactive)
- GI50 (HCC 2998): 2.07 µM (inactive)
- GI50 (NCI-H226): 7.82 µM (inactive)
- GI50 (SK-MEL-28): 2.27 µM (inactive)
- GI50 (TK-10): 10 µM (inactive)
- GI50 (COLO 205): 1.92 µM (inactive)
- GI50 (UACC-257): 4.63 µM (inactive)
- GI50 (SK-OV-3): 14.8 µM (inactive)
- GI50 (A549): 2.11 µM (inactive)
- GI50 (UACC-62): 3.66 µM (inactive)
- GI50 (OVCAR-8): 13.1 µM (inactive)
- GI50 (MDA-MB-231): 3.12 µM (inactive)
- GI50 (IGROV-1): 6.12 µM (inactive)
- GI50 (NCI-H23): 4.04 µM (inactive)
- GI50 (RXF 393): 5.55 µM (inactive)
- GI50 (KM12): 8.61 µM (inactive)
- GI50 (SW-620): 6.35 µM (inactive)
- GI50 (A498): 2.15 µM (inactive)
- GI50 (HCT-15): 13.5 µM
